Measurements from US20140363486A1, “METHODS FOR REDUCING OR ALTERING SCAR FORMATION” (Prelief, Inc., priority 2007, published 2014).

Legend:
[1] = tested on: surgical wounds resulting from double knee replacement operations; test: 20-patient clinical study, surgical wounds from double knee replacement operations, one leg treated; type: in vivo, human
From the text: FIGS. 2a-2d are black and white photocopies of the color photographs of the knees of another human subject. They received simultaneous bilateral total knee replacements. […] Their left leg (on the right side of the photographs) received no CGP treatment.
FIGS. 2a, 2b, 2c and 2d, which are black and white photocopies of the color photographs of the knees of one of the 20 human subjects, illustrate the exemplary results from the clinical study. The subject received simultaneous bilateral total knee replacements. […] Their left leg (on the right side of the photographs) received no CGP treatment. Since the commencement of the treatment, 2 ml of Cellerity® 10 lotion was topically applied to the wounds of the knee surgeries twice daily everyday and will continue for 6 consecutive weeks.
The untreated leg, in contrast, has deep, wandering scars that are almost chasms in their depth and raw openness.
In contrast, SteriStripes were required to be applied to the untreated leg and continued for an additional 6 days.
In addition, two subjects of the first five subjects enrolled in the double knee replacement clinical study described above reported they felt “less heat” in their knee incision site treated with CGP than in the untreated knee site during the early weeks of post operative recovery.

[2] = tested on: burn wound to the inner forearm; test: Burn wound to the inner forearm, right side of the wound treated; type: in vivo, human
From the text: Color variations in the background of the photos are an artifact of the time of the day and the location when the pictures were taken.
FIGS. 4a-4f illustrate the wound healing effect of a glycerophosphate salt on a burn wound to the inner forearm of a human subject. […] The left-side of the wound received no treatment.

[3] = tested on: rhino mucosal passage inflammation; test: Observation of low CGP concentrations on rhino mucosal passage inflammation; type: in vivo; conditions: lower concentrations, between 1% and 2% by weight
From the text: In one embodiment of the present invention, an effective amount of a glycerophosphate salt, in a form of dry powder, granules, or gel is applied directly to the wound via spray, physical transfer by finger or implement to form a coating on the wound. The coating can contain a final local concentration of the glycerophosphate salt of about 0.5%-100% by weight. For example, the final local concentration of the glycerophosphate salt can be about 0.5% to about 5%, about 5% to about 15%, about 15% to about 25%, about 25% to about 35%, about 35% to about 45%, about 45% to about 55%, about 55% to about 65%, about 65% to about 75%, about 75% to about 85%, or about 85% to about 100%, by weight.

[4] = tested on: wounds resulting from an excision surgery to the nose; test: Bilateral surgical nose excision wounds, one wound treated; type: in vivo, human; conditions: left-side wound
From the text: FIGS. 3a-3f illustrate the wound healing effect of a glycerophosphate salt on wounds resulting from an excision surgery, e.g., to the nose. A subject received two surgically inflicted wounds to their nose occasioned by removal of benign growths. […] Per physician's request, Neosporin® was applied to both wounds for one week, and Cellerity® was applied topically to the worst of the two wounds, i.e., the left-side surgical wound (on the right side of the photographs), twice daily. The subject was instructed to return to the laboratory for weekly observations.

calcium glycerophosphate [CGP]
healing of the surgical wound / surgical scar ([1]; Cellerity 10 lotion (10% (w/w) CGP), 2 ml twice daily from approx. 72 hours post operation, up to 14 days post operation, vs untreated leg): healed dramatically better
swelling and continuing pale inflammation ([1]; Cellerity 10 lotion twice daily, 14 days post operation, observed in the untreated leg): showed neither
need for SteriStrips post staple removal ([1]; treated leg, the untreated leg required SteriStrips for an additional 6 days): alleviated the need for application of SteriStrips
heat felt in the knee incision site ([1]; two of the first five subjects enrolled, treated vs untreated knee site, early weeks of post operative recovery): less heat
time at which the wound healing improvement effect was first observed ([2]; Cellerity lotion (7.5% (w/w) CGP) twice daily for the first three days, from 24 hours post infliction): 3 days
wound status ([2]; after 16 days of CGP treatment, 7.5% lotion for three days, then 37% (w/w) CGP paste, the untreated side still had a pinkish color): completely healed and disappeared
effect on apparent rhino mucosal passage inflammation [3]: favorably affect
wound appearance ([4]; after 6 days of CGP treatment): appeared less deep than it was a week ago
wound appearance ([4]; after 16 days of CGP treatment): appeared significantly advanced
wound appearance ([4]; after 30 days of CGP treatment): healed, fully recolonized with epidermal skin
wound appearance ([4]; after 36 days of CGP treatment): completely healed
wound appearance ([4]; after 51 days of CGP treatment): completely healed
wound healing, subject's report ([4]; after one day of treatment, Cellerity (7.5% (w/w) CGP) twice daily, Neosporin on both wounds for one week): almost immediate apparent change in wound healing in favor of the CGP treated site
